The subject of experiment [1] is MDA-MB-231-luc-D3H2LN cells. As to the kind of experiment: Survival in a rodent model of breast cancer (intracardiac injection of MDA-MB-231-luc-D3H2LN cells). Conditions: for effect on survival (Kaplan-Meier, FIG. 1): intraperitoneal QDx5 from day 22 after implantation, 5 mg/kg gemcitabine-ibandronate conjugate, 6 mg/mg gemcitabine-etidronate conjugate, equimolar free etidronate, ibandronate, gemcitabine, groups of 10. In kind it is in vivo, Female Harlan nude mice (Hsd:Athymic Nude-Foxn1nu). On the procedure: FIG. 1 provides Kaplan-Meier survival curves: a murine model of breast cancer of mice treated with saline gemcitabine-ibandronate conjugate (GEM-IB) or gemcitabine-etidronate conjugate (GEM-ET).
Female Harlan nude mice (Hsd:Athymic Nude-Foxn1nu) of 8 weeks age were administered a 100 uL intracardiac injection of MDA-MB-231-luc-D3H2LN cells (Caliper/Xenogen) at106 cells/mL in Dulbecco's Phosphate Buffered Saline. Twenty-two days after implantation the animals were randomized into groups of 10. Each group received one of the following agents 5 days per week (QDx5) as a 100 uL intraperitoneal injection to achieve a dosing of: saline, 5 mg/kg gemcitabine-ibandronate conjugate, 6 mg/mg gemcitabine-etidronate conjugate, equimolar free etidronate, equimolar free ibandronate, equimolar free gemcitabine.

In experiment [2] the test system is 22 RV1-Luc+ prostate cancer cells. As to the kind of experiment: Survival and tumor imaging in a rodent model of prostate cancer induced bone disease (intratibial 22 RV1-Luc+ cells). In kind it is in vivo, male SCID mice. The method, then:
Six-week old male SCID mice were injected with 10 uL of 10^6 22 RV1-Luc+ prostate cancer cells into the tibia. Luminescence on day 6 confirmed implantation and mice were randomized into groups of 10 and began dosing on day 7. Mice received intraperitoneal injections 5 days/week of saline or 2 mg/kg gemcitibine-ibandronate conjugate (compound 5, example 1) until the end of week 6 and were imaged every 7 days. A Xenogen imaging station was used to visualize tumor cells; the heat map from light blue to red indicates increasing tumor cells numbers.

Experiment [3] shares this test system. As to the kind of experiment: Incidence of distal metastases in a rodent model of prostate cancer induced bone disease (intratibial 22 RV1-Luc+ cells). Conditions: day 34 and day 41; for percent of mice with distal metastases (FIG. 3): 2 mg/kg gemcitabine-ibandronate conjugate or molar equivalent, intraperitoneal QDx5 from day 7, versus saline. It counts as in vivo, male SCID mice. On the procedure: Mice were treated with saline, or equimolar doses of ibandronate (Iband), gemcitabine (Gem), gemcitabine-etidronate conjugate (Gem-Eti), or with the gemcitabine-ibandronate conjugate 5 (Gem-Ibad).
As above in example 5, six-week old male SCID mice were injected with 10 uL of 10^6 22 RV1-Luc+ prostate cancer cells into the tibia. Luminescence on day 6 confirmed implantation and mice were randomized into groups of 10-13 and began dosing on day 7. Mice received intraperitoneal injections QDx5 (5 days/week) of saline or 2 mg/kg gemcitibine-ibandronate conjugate or the molar equivalent of gemcitabine-etidronate conjugate, free ibandronate, or free gemcitibine until the end of week 6 and were imaged every 7 days. A Xenogen imaging station was used to visualize tumor cells and metastases distal to the tibial site of implantation.

Turning to `CCCCCN(C)CCC(O)(P(=O)(O)O)P(=O)(O)OP(=O)(O)OC[C@H]1O[C@@H](n2ccc(N)nc2=O)C(F)(F)C1O` (some centres unmarked) [conjugate 5, Gemcitabine-Ibandronate Conjugate], the “survival benefit compared with the other treatments” value in experiment [1] (intraperitoneal QDx5, 5 mg/kg gemcitabine-ibandronate conjugate versus 6 mg/mg gemcitabine-etidronate conjugate) is recorded as “greatest benefit”. For the same compound, the “effect on survival (Kaplan-Meier, FIG. 1)” value (from here on “effect on survival”) in experiment [1] is on record as “improved survival”. For the same compound, in experiment [2] (2 mg/kg intraperitoneal 5 days/week from day 7 until end of week 6, groups of 10, saline control 6 of 10 alive), the “mice alive at the end of 42 days (FIG. 2)” value was “all mice treated with the compound 5 (example 1) were alive”. In addition, the “cancer cells present by Xenogen image analysis” value in experiment [2] (2 mg/kg intraperitoneal 5 days/week, from day 28 and later, versus saline) is “less cancer cells are present”. In addition, the “percent of mice with distal metastases (FIG. 3)” value in experiment [3] was “reduced the percent of mice with distal metastases”. In experiment [3] (2 mg/kg intraperitoneal QDx5), the “benefit on distal metastases compared with the other treatments” value is recorded as “superior benefit”.
Consider `CC(O)(P(=O)(O)O)P(=O)(O)O` [etidronate], for which the “effect on survival” value in experiment [1] is listed as “did not have a significant effect on survival”.
Take `Nc1ccn([C@@H]2O[C@H](CO)[C@@H](O)C2(F)F)c(=O)n1` [gemcitabine, Gemcitabine]: the “effect on survival” value in experiment [1] is on record as “did not have a significant effect on survival”.
As for `CCCCCN(C)CCC(O)(P(=O)(O)O)P(=O)(O)O` [ibandronate], the “effect on survival” value in experiment [1] is “did not have a significant effect on survival”.
Consider “gemcitabine-etidronate conjugate [reference compound]”, for which the “effect on survival” value in experiment [1] is “improved survival”. Further, in experiment [3], the “percent of mice with distal metastases (FIG. 3)” value is “reduced the percent of mice with distal metastases”.

The values above are taken from patent US11298366B2, “Ibandronate conjugates of nucleoside antimetabolites” (MBC Pharma, Inc., priority 2017, dated 2022).
